ChEMBL document CHEMBL1201862, “PubChem BioAssay data set” (2004)
Calls of active or inactive are those of the source.

What was measured:
[1] = viability of PTEN-deleted HCT116 cells – cell-based, HCT116 PTEN knockout, dose response (AID 1047); assay type: functional;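 note: HCT116 colon tumor cells with PTEN knocked out; cells exposed to compound for 60 hours before readout; potency for loss of cell viability measured by luminescence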
[2] = viability of HCT116 lacking mutant beta-catenin – cell-based, human colon tumor, dose response (AID 1045); assay type: functional;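 note: HCT116 colon tumor cells with beta catenin knocked out; cells exposed to compound for 60 hours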
[3] = microbe, parasite or virus in culture; assay type: functional; conditions: Mycobacterium tuberculosis
Protein skinhead-1 = molecular target: T1, Protein skinhead-1 (Caenorhabditis elegans, UniProt P34707); assay type: functional
T1 sequence (P34707 whole entry): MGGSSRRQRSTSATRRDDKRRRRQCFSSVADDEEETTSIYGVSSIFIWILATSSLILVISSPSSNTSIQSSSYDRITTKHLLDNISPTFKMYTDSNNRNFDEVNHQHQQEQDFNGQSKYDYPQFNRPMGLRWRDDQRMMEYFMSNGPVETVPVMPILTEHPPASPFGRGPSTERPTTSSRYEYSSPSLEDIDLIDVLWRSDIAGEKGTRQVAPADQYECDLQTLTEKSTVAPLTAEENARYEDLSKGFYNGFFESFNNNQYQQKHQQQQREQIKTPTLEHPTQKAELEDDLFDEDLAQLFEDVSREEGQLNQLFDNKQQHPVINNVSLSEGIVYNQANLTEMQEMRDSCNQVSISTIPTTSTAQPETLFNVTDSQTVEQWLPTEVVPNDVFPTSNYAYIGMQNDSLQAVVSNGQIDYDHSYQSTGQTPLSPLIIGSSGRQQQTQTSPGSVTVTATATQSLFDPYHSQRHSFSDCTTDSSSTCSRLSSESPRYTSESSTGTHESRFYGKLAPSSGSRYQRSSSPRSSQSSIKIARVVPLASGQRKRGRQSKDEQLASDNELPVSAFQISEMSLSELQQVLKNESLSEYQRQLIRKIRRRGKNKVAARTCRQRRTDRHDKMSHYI

[4] = viability of uninfected HEp-2 cells – cell-based, HTS, cytotoxicity control for RSV inhibitor project, dose response (AID 2410); assay type: functional; conditions: human respiratory syncytial virus
[5] = system: Streptococcus sp. 'group A'; test: Streptococcus pyogenes SK(-)GAS viability under kanamycin – luminescence, BacTiterGlo, confirmation, counter-screen for streptokinase expression inhibitor project, dose response (AID 1900); assay type: functional, organism-based
H9c2 = test: cells; assay type: functional, cell-based; conditions: Rattus norvegicus, H9c2, Myocardium
Streptococcus = test: GAS UMAA2166 growth inhibition – luminescence, BacTiterGlo, counter-screen for streptokinase expression inhibitor project, dose response (AID 1915); assay type: functional, organism-based;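 note: potency for reduction of bacterial viability or growth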
Large T antigen = Large T antigen (Simian virus 40, UniProt P03070); assay type: functional, Betapolyomavirus macacae;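 note: Confirmatory-stage PubChem screen for compounds that inhibit SV40 T antigen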
Chain of Large T antigen (P03070 whole entry): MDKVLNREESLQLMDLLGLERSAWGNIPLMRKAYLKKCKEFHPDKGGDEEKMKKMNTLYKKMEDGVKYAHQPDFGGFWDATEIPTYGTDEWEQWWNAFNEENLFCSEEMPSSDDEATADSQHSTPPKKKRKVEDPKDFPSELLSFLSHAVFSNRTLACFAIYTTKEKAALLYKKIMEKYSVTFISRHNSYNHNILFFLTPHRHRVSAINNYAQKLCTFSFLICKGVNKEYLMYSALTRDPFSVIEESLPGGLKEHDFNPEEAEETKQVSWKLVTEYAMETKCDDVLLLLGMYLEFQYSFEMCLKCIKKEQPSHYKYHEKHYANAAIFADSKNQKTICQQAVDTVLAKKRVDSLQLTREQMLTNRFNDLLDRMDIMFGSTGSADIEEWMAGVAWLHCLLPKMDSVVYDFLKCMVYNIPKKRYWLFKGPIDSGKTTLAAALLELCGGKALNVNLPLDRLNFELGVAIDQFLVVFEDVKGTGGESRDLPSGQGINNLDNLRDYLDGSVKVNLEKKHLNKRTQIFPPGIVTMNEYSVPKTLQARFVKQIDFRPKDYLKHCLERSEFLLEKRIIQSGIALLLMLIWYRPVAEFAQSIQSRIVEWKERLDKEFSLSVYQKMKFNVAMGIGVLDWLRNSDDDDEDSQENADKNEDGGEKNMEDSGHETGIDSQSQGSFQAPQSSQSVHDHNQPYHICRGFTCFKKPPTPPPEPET

[6] = molecular target: T2, Rac GTPase-activating protein 1 (Homo sapiens, UniProt Q9H0H5); test: blockers of MgcRacGAP-driven Rac1 GTP hydrolysis – biochemical, ADP Hunter fluorescence, primary and confirmatory, confirmation (AID 624330); assay type: functional
T2 sequence (Q9H0H5 whole entry): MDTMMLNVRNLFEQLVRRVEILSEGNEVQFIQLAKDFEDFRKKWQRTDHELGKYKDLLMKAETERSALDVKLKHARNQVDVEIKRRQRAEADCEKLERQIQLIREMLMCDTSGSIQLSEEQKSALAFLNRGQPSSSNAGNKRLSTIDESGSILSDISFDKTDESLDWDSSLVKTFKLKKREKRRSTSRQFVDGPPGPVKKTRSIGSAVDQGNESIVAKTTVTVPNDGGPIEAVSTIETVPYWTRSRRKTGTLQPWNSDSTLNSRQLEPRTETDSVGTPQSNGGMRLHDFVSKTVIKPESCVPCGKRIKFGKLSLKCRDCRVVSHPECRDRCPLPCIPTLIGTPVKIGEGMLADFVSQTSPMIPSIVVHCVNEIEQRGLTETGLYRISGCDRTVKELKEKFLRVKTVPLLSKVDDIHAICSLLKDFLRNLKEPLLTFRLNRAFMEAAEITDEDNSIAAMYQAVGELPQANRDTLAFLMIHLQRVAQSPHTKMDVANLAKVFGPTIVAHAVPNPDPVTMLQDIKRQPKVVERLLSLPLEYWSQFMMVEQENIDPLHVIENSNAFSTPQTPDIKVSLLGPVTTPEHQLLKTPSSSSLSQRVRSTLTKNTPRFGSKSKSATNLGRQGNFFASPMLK

[7] = molecular target: Induced myeloid leukemia cell differentiation protein Mcl-1 (Homo sapiens, UniProt Q07820); assay type: functional
Chain of Induced myeloid leukemia cell differentiation protein Mcl-1 (Q07820 whole entry): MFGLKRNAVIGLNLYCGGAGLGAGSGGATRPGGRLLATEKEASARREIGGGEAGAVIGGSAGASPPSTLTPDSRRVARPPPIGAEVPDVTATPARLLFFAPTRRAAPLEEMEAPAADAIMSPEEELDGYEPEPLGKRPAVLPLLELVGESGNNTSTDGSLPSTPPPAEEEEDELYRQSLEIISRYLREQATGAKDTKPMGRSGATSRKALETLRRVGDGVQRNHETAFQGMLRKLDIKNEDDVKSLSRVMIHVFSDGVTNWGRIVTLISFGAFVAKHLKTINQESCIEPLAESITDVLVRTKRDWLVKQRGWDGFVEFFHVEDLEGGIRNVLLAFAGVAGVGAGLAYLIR

Streptokinase A = molecular target: T3, Streptokinase A (Streptococcus pyogenes serotype M1, UniProt P10520); test: viability-normalized secreted streptokinase activity reduction – plasminogen activation absorbance, OD405, dose response (AID 1914); assay type: functional, Streptococcus pyogenes M1 GAS;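 note: secreted streptokinase activity via plasminogen activation per viability signal from cell pellet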
T3 sequence (P10520 whole entry): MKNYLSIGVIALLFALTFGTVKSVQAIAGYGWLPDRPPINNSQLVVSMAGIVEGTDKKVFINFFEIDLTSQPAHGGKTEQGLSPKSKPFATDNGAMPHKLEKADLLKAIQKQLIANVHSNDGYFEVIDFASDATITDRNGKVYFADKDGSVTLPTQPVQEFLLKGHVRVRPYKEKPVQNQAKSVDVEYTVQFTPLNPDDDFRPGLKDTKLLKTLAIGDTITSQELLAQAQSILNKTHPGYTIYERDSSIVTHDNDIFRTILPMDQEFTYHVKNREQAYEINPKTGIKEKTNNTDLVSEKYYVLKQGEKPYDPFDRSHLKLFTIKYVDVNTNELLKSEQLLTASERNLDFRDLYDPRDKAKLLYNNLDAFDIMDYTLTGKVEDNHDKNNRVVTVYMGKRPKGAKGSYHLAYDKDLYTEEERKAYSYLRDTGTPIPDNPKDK

[8] = molecular target: DNA dC->dU-editing enzyme APOBEC-3G (Homo sapiens, UniProt Q9HC16); assay type: functional;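 note: Dose-response counterscreen measuring inhibition of APOBEC3G DNA deaminase activity, run while confirming APOBEC3A inhibitors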
Chain of DNA dC->dU-editing enzyme APOBEC-3G (Q9HC16 whole entry): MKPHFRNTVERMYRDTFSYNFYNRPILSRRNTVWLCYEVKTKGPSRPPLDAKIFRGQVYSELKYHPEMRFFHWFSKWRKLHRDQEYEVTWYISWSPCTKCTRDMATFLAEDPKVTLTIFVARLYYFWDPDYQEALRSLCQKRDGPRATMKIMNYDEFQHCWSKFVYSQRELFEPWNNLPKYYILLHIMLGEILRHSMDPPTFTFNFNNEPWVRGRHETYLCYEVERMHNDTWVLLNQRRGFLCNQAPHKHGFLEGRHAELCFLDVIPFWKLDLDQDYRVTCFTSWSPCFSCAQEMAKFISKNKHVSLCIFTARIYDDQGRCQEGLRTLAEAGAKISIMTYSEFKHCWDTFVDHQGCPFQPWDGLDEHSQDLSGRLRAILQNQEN

[9] = molecular target: DNA dC->dU-editing enzyme APOBEC-3A (Homo sapiens, UniProt P31941); test: Dose Response confirmation of small molecule APOBEC3A DNA Deaminase Inhibitors via a fluorescence-based single-stranded DNA deaminase assay. [Related pubchem assays (depositor defined):AID493011, AID493024]; assay type: functional
Chain of DNA dC->dU-editing enzyme APOBEC-3A (P31941 whole entry): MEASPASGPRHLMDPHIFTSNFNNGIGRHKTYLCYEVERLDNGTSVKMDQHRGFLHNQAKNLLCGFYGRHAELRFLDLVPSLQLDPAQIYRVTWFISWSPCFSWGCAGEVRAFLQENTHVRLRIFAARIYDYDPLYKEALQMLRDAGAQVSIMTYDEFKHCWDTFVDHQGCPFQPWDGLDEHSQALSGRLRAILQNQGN

Nonstructural protein 1 = Nonstructural protein 1 (Influenza A virus, UniProt Q194T2); assay type: functional, Influenza A virus (A/California/07/2009(H1N1))
Chain of Nonstructural protein 1 (Q194T2 whole entry): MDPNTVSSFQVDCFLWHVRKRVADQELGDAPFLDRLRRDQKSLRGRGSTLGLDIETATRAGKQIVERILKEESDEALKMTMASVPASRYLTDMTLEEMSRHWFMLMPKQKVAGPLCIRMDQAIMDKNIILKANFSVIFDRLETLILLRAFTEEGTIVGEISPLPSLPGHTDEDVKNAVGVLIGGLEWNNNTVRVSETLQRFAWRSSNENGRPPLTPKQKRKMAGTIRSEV

[10] = molecular target: T4, Histone-lysine N-methyltransferase NSD2 (Homo sapiens, UniProt O96028); assay type: biochemical
T4 sequence (O96028 whole entry): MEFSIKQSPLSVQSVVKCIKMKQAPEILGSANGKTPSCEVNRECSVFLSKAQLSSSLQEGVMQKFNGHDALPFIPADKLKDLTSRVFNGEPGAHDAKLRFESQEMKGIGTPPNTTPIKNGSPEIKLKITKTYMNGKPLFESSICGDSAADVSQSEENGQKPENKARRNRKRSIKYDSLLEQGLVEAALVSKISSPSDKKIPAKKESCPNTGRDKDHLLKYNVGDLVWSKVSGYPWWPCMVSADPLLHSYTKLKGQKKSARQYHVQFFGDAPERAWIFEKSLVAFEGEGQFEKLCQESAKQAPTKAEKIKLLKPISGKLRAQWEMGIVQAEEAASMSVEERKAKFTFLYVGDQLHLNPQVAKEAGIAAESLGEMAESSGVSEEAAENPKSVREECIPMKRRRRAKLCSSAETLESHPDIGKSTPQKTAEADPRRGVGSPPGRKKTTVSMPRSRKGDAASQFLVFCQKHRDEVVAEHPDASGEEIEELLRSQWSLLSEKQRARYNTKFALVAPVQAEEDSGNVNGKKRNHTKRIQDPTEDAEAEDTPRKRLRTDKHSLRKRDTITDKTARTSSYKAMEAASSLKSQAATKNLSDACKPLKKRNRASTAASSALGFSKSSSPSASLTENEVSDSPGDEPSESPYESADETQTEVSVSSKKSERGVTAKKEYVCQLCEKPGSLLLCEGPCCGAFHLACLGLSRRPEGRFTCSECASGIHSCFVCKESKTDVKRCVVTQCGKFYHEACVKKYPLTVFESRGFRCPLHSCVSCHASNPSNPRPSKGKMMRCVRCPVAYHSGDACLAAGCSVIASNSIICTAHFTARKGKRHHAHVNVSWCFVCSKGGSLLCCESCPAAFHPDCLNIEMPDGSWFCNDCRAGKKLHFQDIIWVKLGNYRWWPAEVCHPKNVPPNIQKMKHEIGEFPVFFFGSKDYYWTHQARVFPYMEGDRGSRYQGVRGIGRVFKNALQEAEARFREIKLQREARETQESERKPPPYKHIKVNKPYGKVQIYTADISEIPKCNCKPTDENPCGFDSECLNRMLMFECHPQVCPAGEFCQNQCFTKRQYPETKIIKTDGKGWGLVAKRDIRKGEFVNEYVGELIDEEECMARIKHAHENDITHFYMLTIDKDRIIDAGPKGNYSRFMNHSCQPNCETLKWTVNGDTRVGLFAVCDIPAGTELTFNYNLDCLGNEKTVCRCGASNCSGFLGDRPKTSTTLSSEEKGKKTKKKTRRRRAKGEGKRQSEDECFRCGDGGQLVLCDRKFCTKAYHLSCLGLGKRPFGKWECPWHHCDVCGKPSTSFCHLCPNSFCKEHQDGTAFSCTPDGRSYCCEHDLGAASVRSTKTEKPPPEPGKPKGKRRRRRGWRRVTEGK

[11] = molecular target: T5, Mannose-6-phosphate isomerase (Homo sapiens, UniProt P34949); test: MPI inhibition at elevated mannose 6-phosphate – biochemical, fluorescence intensity, high mannose 6-phosphate, primary screen (AID 1220)
T5 sequence (P34949 whole entry): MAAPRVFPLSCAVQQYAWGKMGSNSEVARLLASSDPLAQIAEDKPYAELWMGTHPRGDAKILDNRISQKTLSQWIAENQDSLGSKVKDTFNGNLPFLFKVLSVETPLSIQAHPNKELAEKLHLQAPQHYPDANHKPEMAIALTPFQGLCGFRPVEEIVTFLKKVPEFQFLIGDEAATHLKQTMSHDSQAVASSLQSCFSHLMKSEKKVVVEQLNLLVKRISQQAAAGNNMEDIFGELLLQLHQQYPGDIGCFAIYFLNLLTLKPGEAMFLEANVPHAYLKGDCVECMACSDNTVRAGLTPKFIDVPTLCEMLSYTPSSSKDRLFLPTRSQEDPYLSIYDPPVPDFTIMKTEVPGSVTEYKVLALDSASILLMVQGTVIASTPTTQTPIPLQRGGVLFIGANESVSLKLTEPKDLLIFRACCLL

## Cc1cncn1CCc1nc2c3ccccc3nc(SCC(=O)Nc3cccc(Cl)c3)n2n1
[1]
  EC50: 13.3 µM (active)
[2]
  EC50: 10.7 µM (active)
[3]
  CC50: 14.3 µM (active)

## CN(C(=O)CSCC(=O)Nc1ccc(Cl)cc1)C1CCCCC1
Protein skinhead-1
  IC50: > 100 µM (inactive)

## COc1ccc(/C=C2\SC(=O)N(CC(=O)Nc3ccccc3O)C2=O)cc1OC
Protein skinhead-1
  IC50: > 100 µM (inactive)

## Cc1c(OC(=O)CNC(=O)OC(C)(C)C)ccc2c3c(c(=O)oc12)CCC3
[4]
  CC50: 36.9 µM (active)
Protein skinhead-1
  IC50: > 100 µM (inactive)

## Clc1ccc(OCc2nc(-c3ccncc3)no2)c(Br)c1
Protein skinhead-1
  IC50: 31.6 µM (active)

## CCOC(=O)c1ccc(NC(=O)c2[nH]cnc2C(=O)NCCCCCNC(=O)OC(C)(C)C)cc1
[5]
  EC50: 3.49 µM (active)
H9c2
  IC50: > 79 µM (inactive)
Streptococcus
  EC50: 5.74 µM (active)

## CC(C)(C)c1cc(C(=O)N/N=C/c2ccc(O)cc2)n(-c2ccccc2)n1
Large T antigen
  IC50: 46.2 µM (active)
[6]
  IC50: 122 µM (active)

## O=C(CCc1nc(O)c2ccccc2n1)OCC(=O)N1CCc2ccccc21
H9c2
  IC50: > 79 µM (inactive)

## O=C1N[C@H](Cc2ccccc2)COC(=O)[C@@H](Cc2ccc(F)cc2)C/C=C\C[C@H]1CC(=O)N(CCO)Cc1ccccc1
H9c2
  IC50: > 79 µM (inactive)

## COc1ccc(N2CCN(C(=O)c3ccc(CSc4ccccc4)cc3)CC2)cc1
[7]
  IC50: 4.83 µM (not active)

## Cc1cccc(C(=O)NC(C(=O)Nc2nc(-c3ccccn3)cs2)C(C)C)c1 (stereo not drawn)
[5]
  EC50: 6.29 µM (active)
H9c2
  IC50: 8.6 µM (active)
Streptokinase A
  EC50: > 150 µM (not active)
Streptococcus
  EC50: 17.1 µM (active)

## Cc1cccc(C(=O)N[C@H](C(=O)OCc2cc(=O)n3c(n2)sc2ccccc23)C(C)C)c1
[8]
  IC50: 24.5 µM (active)
[5]
  EC50: 26.2 µM (active)
[9]
  IC50: 14.7 µM (active)
Streptokinase A
  EC50: > 150 µM (not active)
Streptococcus
  EC50: 40.5 µM (active)

## COc1ccc(NC(=O)CSC2=C(C#N)C(c3ccco3)C(C(=O)Nc3nc4ccccc4s3)=C(C)N2)cc1 (stereo not drawn)
[3]
  CC50: > 40 µM (active)

## CSc1nc(Cl)c(Br)c(N2CC2)n1
H9c2
  IC50: > 79 µM (inactive)

## CN(C)c1cccc2c1C(=O)c1ccccc1C2=O
Nonstructural protein 1
  IC50: 10.1 µM (active)
[10]
  AC50: 5.57 µM (active)

## CC(C)c1ccc(N(CC(=O)Nc2ccc(S(=O)(=O)N3CCOCC3)cc2)S(C)(=O)=O)cc1
Protein skinhead-1
  IC50: > 100 µM (inactive)

## Oc1ccc(/C=N/Nc2ccc(C(F)(F)F)cn2)cc1O
Large T antigen
  IC50: 48.3 µM (active)

## CCOc1ccc(/C=N/n2nnnc2N)cc1O
Large T antigen
  IC50: 9.64 µM (active)

## CC(=O)O[C@H]1C[C@@]2(C)[C@@H](C[C@@H](O)[C@H]3[C@@]4(C)CC[C@@H](O)[C@@H](C)[C@@H]4CC[C@@]32C)/C1=C(\CCC=C(C)C)C(=O)O
Large T antigen
  IC50: 20.4 µM (active)
[5]
  EC50: 0.161 µM (active)
Streptokinase A
  EC50: 0.362 µM (active)
Streptococcus
  EC50: 0.947 µM (active)

## Nc1cc2nc[nH]c2cc1N
[7]
  IC50: > 54 µM (not active)
[11]
  IC50: > 50 µM (not active)
